Laboratory results published in US20240270744A1 (Hoffmann-La Roche Inc., priority 2021, published 2024).
pKi: −log10 of the molar value. Like-named read-outs stand apart in the source and are kept apart here.

Experiments:
Assay in all cases: Radioligand binding assay, competition for [3H]RO7239181, γ1-containing GABAA subtypes
[1] = molecular target: human GABAA α5β2γ1 receptor (Homo sapiens (Human), UniProt P31644+Q8N1C3); conditions: Table 1; [3H]RO7239181 displacement, membranes from HEK293F cells, mean of two determinations
Experimental: The affinity of compounds at GABAA γ1 subunit-containing receptors was measured by competition for [^3H]RO7239181 (67.3 Ci/mmol; Roche) binding to membranes from HEK293F cells (ThermoFisher R79007) expressing human (transiently transfected) receptors of composition α5β2γ1, α2β2γ1, α1β2γ1. For better protein expression of the α2 subunit-containing receptors, the 28 amino acid long signal peptide (Met1 to Ala28) of the human GABAA α2 subunit was substituted by the 31 amino acid long signal peptide (Met1 to Ser31) of human GABAA α5 subunit.
(§1) Harvested pellets from HEK293F cells expressing the different GABAA receptor subtypes were resuspended in Mannitol Buffer pH 7.2-7.4 (Mannitol 0.29 M, Triethylamine 10 mM, Acetic acid 10 mM, EDTA 1 mM plus protease inhibitors (20 tablets Complete, Roche Diagnostics Cat. No. 05 056 489 001 per liter)), washed two times and then resuspended at 1:10 to 1:15 dilution in the same buffer. Cell disruption was performed by stirring the suspension in a Parr vessel #4637 at 435 psi for 15 minutes, and then the suspensions were centrifuged at 1000×g for 15 minutes at 4° C. (Beckman Avanti J-HC: rotor JS-4.2). The supernatant (S1) was transferred in a 21 Schott flask and the pellet (P1) was resuspended with Mannitol Buffer up to 175 ml. The resuspended pellet was transferred into a 250 ml Corning centrifugal beaker and centrifuged at 1500×g for 10 minutes at 4° C. (Beckman Avanti J-HC: rotor JS-4.2). The supernatant (S1) was then transferred in the 21 Schott flask and the pellet was discarded. The supernatants (S1) were centrifuged in 500 ml Beckman polypropylene centrifugal beaker at 15′000×g for 30 minutes at 4° C. (Beckman Avanti J-20 XP; rotor JLA-10.500). The pellet (P2) was resuspended with Mannitol Buffer 1:1 and frozen at −80° C. The supernatant (S2) was centrifuged in 100 ml Beckman polypropylene centrifugal tubes at 48000×g for 50 minutes at 4° C. (Beckman Avanti J-20 XP; rotor JA-18). The supernatant (S3) was discarded and the pellet (P3) was resuspended with 1:1 Mannitol Buffer. The P2 and P3 protein concentration was determined with the BIORAD Standard assay method with bovine serum albumin as standard and measured on the NANO-Drop 1000. The membrane suspension was aliquots (500 μl per tube) and stored at −80° C. until required.
(§2) Membrane homogenates were resuspended and polytronised (Polytron PT1200E Kinematica AG) in Potassium Phosphate 10 mM, KCl 100 mM binding buffer at pH 7.4 to a final assay concentration determined with a previous experiment.
Radioligand binding assays were carried out in a volume of 200 μL (96-well plates) which contained 100 μL of cell membranes, [3H]RO7239181 at a concentration of 1.5 nM (α5β2γ1) or 20-30 nM (α1β2γ1, α2β2γ1) and the test compound in the range of [0.3-10000]=10^−9 M. Nonspecific binding was defined by 10×10^−6 (α5β2γ1) and 30×10^−6 M RO7239181 and typically represented less than 5% (α5β2γ1) and less than 20% (β1β2γ1, α2β2γ1) of the total binding. Assays were incubated to equilibrium for 1 hour at 4° C. and then, membranes were filtered onto unifilter (96-well white microplate with bonded GF/C filters preincubated 20-50 minutes in 0.3% Polyethylenimine) with a Filtermate 196 harvester (Packard BioScience) and washed 4 times with cold Potassium Phosphate 10 mM pH 7.4, KCl 100 mM binding buffer. After anhydrousing, filter-retained radioactivity was detected by liquid scintillation counting. Ki values were calculated using Excel-Fit (Microsoft) and are the means of two determinations.
Representative test results, obtained by the above described assay measuring binding affinity to HEK293 cells expressing human (h) receptors, are shown in the Table 1.

[2] = molecular target: human GABAA α2β2γ1 receptor (Homo sapiens (Human), UniProt P47869+Q8N1C3); conditions: for γ2/γ1 Selectivity Ratio: Ki α1β3γ2 (nM)/Ki α2β2γ1 (nM); for LogSel: Log of the γ2/γ1 Ki ratio
Experimental: (§3) The affinity of compounds at GABAA γ1 subunit-containing receptors was measured by competition for [^3H]RO7239181 (67.3 Ci/mmol; Roche) binding to membranes from HEK293F cells (ThermoFisher R79007) expressing human (transiently transfected) receptors of composition α5β2γ1, α2β2γ1, α1β2γ1.
as §1, §2
(§4) Assays were incubated to equilibrium for 1 hour at 4° C. and then, membranes were filtered onto unifilter (96-well white microplate with bonded GF/C filters preincubated 20-50 minutes in 0.3% Polyethylenimine) with a Filtermate 196 harvester (Packard BioScience) and washed 4 times with cold Potassium Phosphate 10 mM pH 7.4, KCl 100 mM binding buffer. After anhydrousing, filter-retained radioactivity was detected by liquid scintillation counting. Ki values were calculated using Excel-Fit (Microsoft) and are the means of two determinations.

[3] = molecular target: human GABAA α1β2γ1 receptor (Homo sapiens (Human), UniProt P14867+Q8N1C3); conditions: Table 1; [3H]RO7239181 displacement, membranes from HEK293F cells, mean of two determinations
Experimental: as §3, §1, §2, §4

[4] = Ki h-GABAA α2β2γ1, Table 1, [3H]RO7239181 displacement, membranes from HEK293F cells, mean of two determinations
[5] = Ki h-GABAA α2β2γ1, Table 2, [3H]RO7239181 displacement

Row | Compound | pKi [1] | γ2/γ1 Selectivity Ratio ([2]; Table 1) | LogSel ([2]; Table 1) | pKi ([2]; Table 1, [3H]RO7239181 displacement, membranes from HEK293F cells, mean of two determinations, read-out: Ki h-GABAA α2β2γ1) | pKi ([2]; Table 2, [3H]RO7239181 displacement, read-out: Ki h-GABAA α2β2γ1) | pKi [2, 4] | pKi [2, 5] | pKi [3] | pKi [2] | pKi ([2]; read-out: Ki h-GABAA α2β2γ1, Table 2, [3H]RO7239181 displacement)
1 | Cc1nc2n(n1)-c1cnc(C(F)(F)F)c(Cl)c1C(c1c(F)cccc1F)=N[C@H]2C [Example 5] | 8.77 | 118 | 2.07 | 7.40 | 7.40 |  |  |  |  | 
2 | C[C@H](O)CNC(=O)c1nc2n(n1)-c1cnc(C(F)(F)F)c(Cl)c1C(c1c(F)cccc1F)=N[C@H]2C [Example 14, (7S)-11-chloro-9-(2,6-difluorophenyl)-N-[(2S)-2-hydroxypropyl]-7-methyl-12-(trifluoromethyl)-2,3,5,8,13-pentazatricyclo[8.4.0.02,6]tetradeca-1(10),3,5,8,11,13-hexaene-4-carboxamide] | 8.43 | 190 | 2.28 |  |  | 7.34 | 7.41 | 7.04 |  | 
3 | Cc1ncc2c(c1Cl)C(c1c(F)cccc1F)=N[C@@H](C)c1nnc(C)n1-2 [Example 3, (7S)-11-chloro-9-(2,6-difluorophenyl)-3,7,12-trimethyl-2,4,5,8,13-pentazatricyclo[8.4.0.02,6]tetradeca-1(10),3,5,8,11,13-hexaene] | 8.33 | 35 | 1.54 |  |  | 7.29 | 7.29 |  |  | 
4 | C[C@@H]1N=C(c2c(F)cccc2F)c2c(cnc(C(F)(F)F)c2Cl)-n2nc(C(=O)NCCO)nc21 [Example 15, (7S)-11-chloro-9-(2,6-difluorophenyl)-N-(2-hydroxyethyl)-7-methyl-12-(trifluoromethyl)-2,3,5,8,13-pentazatricyclo[8.4.0.02,6]tetradeca-1(10),3,5,8,11,13-hexaene-4-carboxamide] | 8.59 | 275 | 2.44 |  |  | 7.46 | 7.44 | 6.94 |  | 
5 | Cc1nnc2n1-c1cnc(C3CC3)c(Cl)c1C(c1c(F)cccc1F)=N[C@H]2C [Example 2, (7S)-11-chloro-12-cyclopropyl-9-(2,6-difluorophenyl)-3,7-dimethyl-2,4,5,8,13-pentazatricyclo[8.4.0.02,6]tetradeca-1(10),3,5,8,11,13-hexaene] | 7.90 | 23 | 1.36 |  |  |  |  |  | 6.85 | 6.85
6 | C[C@@H]1N=C(c2c(F)cccc2F)c2c(cnc(C(F)(F)F)c2Cl)-n2nc(NC(=O)C3COC3)nc21 [Example 12, N-[(7S)-11-chloro-9-(2,6-difluorophenyl)-7-methyl-12-(trifluoromethyl)-2,3,5,8,13-pentazatricyclo[8.4.0.02,6]tetradeca-1(10),3,5,8,11,13-hexaen-4-yl]oxetane-3-carboxamide] | 8.28 | 178 | 2.25 |  |  | 7.16 | 7.16 |  |  | 
7 | C[C@@H]1N=C(c2c(F)cccc2F)c2c(cnc(C(F)(F)F)c2Cl)-n2nc(C(=O)NCC3(O)CC3)nc21 [Example 22, (7S)-11-chloro-9-(2,6-difluorophenyl)-N-[(1-hydroxycyclopropyl)methyl]-7-methyl-12-(trifluoromethyl)-2,3,5,8,13-pentazatricyclo[8.4.0.02,6]tetradeca-1(10),3,5,8,11,13-hexaene-4-carboxamide] | 8.19 | 245 | 2.39 |  |  | 7.36 | 7.36 |  |  | 
8 | C[C@@H]1N=C(c2c(F)cccc2F)c2c(cnc(C(F)(F)F)c2Cl)-n2nc(C(=O)N3CC(F)C3)nc21 [Example 7, [(7S)-11-chloro-9-(2,6-difluorophenyl)-7-methyl-12-(trifluoromethyl)-2,3,5,8,13-pentazatricyclo[8.4.0.02,6]tetradeca-1(10),3,5,8,11,13-hexaen-4-yl]-(3-fluoroazetidin-1-yl)methanone] | 8.46 | 253 | 2.40 |  |  | 7.69 | 7.69 |  |  | 
9 | Cc1nnc2n1-c1cnc(Cl)c(Cl)c1C(c1c(F)cccc1F)=N[C@H]2C [Example 1, (7S)-11,12-dichloro-9-(2,6-difluorophenyl)-3,7-dimethyl-2,4,5,8,13-pentazatricyclo[8.4.0.02,6]tetradeca-1(10),3,5,8,11,13-hexaene] | 8.62 | 34 | 1.53 |  |  | 7.50 | 7.50 |  |  | 
10 | C[C@@H]1N=C(c2c(F)cccc2F)c2c(cnc(C(F)(F)F)c2Cl)-n2c1nc1c2CCC1 [Example 20, (10S)-6-chloro-8-(2,6-difluorophenyl)-10-methyl-5-(trifluoromethyl)-1,4,9,12-tetrazatetracyclo[9.6.0.02,7.013,17]heptadeca-2(7),3,5,8,11,13(17)-hexaene] | 8.31 | 92 | 1.96 |  |  | 7.93 | 7.82 |  |  | 
11 | C[C@@H]1N=C(c2c(F)cccc2F)c2c(cnc(C(F)(F)F)c2Cl)-n2nc(N3CCCC3=O)nc21 [Example 13, 1-[(7S)-11-chloro-9-(2,6-difluorophenyl)-7-methyl-12-(trifluoromethyl)-2,3,5,8,13-pentazatricyclo[8.4.0.02,6]tetradeca-1(10),3,5,8,11,13-hexaen-4-yl]pyrrolidin-2-one] | 8.51 | 166 | 2.22 |  |  | 7.49 | 7.49 |  |  | 
12 | C[C@@H]1N=C(c2c(F)cccc2F)c2c(cnc(C(F)(F)F)c2Cl)-n2nc(C(=O)N3CCC3)nc21 [Example 6, azetidin-1-yl-[(7S)-11-chloro-9-(2,6-difluorophenyl)-7-methyl-12-(trifluoromethyl)-2,3,5,8,13-pentazatricyclo[8.4.0.02,6]tetradeca-1(10),3,5,8,11,13-hexaen-4-yl]methanone] | 7.94 | 227 | 2.36 |  |  | 7.34 | 7.34 |  |  | 
13 | C[C@@H]1N=C(c2c(F)cccc2F)c2c(cnc(C(F)(F)F)c2Cl)-n2nc(C(=O)NCC(C)(C)O)nc21 [Example 21, (7S)-11-chloro-9-(2,6-difluorophenyl)-N-(2-hydroxy-2-methyl-propyl)-7-methyl-12-(trifluoromethyl)-2,3,5,8,13-pentazatricyclo[8.4.0.02,6]tetradeca-1(10),3,5,8,11,13-hexaene-4-carboxamide] | 7.97 | 156 | 2.19 |  |  | 7.14 | 7.14 |  |  | 
